The source of these data is ChEMBL document CHEMBL4308868 (Bioorg Med Chem Lett, 2019).

Molecules are shown by their SMILES.

The target in this test is T1, Tyrosinase (Agaricus bisporus, UniProt O42713).
T1 sequence (O42713 whole entry): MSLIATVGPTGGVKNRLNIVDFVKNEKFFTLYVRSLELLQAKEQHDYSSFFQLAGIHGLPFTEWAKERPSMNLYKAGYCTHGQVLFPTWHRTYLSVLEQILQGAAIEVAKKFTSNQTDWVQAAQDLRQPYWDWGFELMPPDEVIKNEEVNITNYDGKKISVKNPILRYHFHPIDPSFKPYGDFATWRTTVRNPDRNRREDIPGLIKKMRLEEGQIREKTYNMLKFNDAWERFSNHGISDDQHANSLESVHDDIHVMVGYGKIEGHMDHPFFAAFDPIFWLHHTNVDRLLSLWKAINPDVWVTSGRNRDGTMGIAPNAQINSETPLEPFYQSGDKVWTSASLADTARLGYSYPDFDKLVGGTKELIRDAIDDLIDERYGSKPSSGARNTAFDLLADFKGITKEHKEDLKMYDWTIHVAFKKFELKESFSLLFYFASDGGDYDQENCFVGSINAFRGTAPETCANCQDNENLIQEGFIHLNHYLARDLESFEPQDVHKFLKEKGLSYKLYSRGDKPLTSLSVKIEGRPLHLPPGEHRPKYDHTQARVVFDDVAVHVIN
Description: Inhibition of mushroom tyrosinase using L-tyrosine as substrate measured after 20 mins by spectrophotometric method
As to `CCOc1cc(C)ccc1C(C)C`, the half-maximal inhibitory concentration (IC50) is more than 500 µM. `CCOc1cc(C(C)C)ccc1C` yielded an IC50 of more than 500 µM. Take `C/C=C/COC(=O)CCC(=O)c1cc(C(C)C)c(OCC)cc1C`: the IC50 was 102 µM. For `CCCOC(=O)CCC(=O)c1cc(C)c(OCC)cc1C(C)C`, the IC50 was 218 µM. For the compound `CCOC(=O)CCC(=O)c1cc(C(C)C)c(OCC)cc1C`, the IC50 is 212 µM. As for `Cc1ccc(C(C)C)cc1O` [CARVACROL], the figure is more than 500 µM. `CCCOC(=O)CCC(=O)c1cc(C(C)C)c(OCC)cc1C` registered an IC50 of 154 µM.

As for `CCOc1cc(C(C)C)c(C(=O)CCC(=O)O)cc1C`, the IC50 is more than 500 µM. `C=CCOC(=O)CCC(=O)c1cc(C(C)C)c(OCC)cc1C` displayed an IC50 of 126 µM.

Turning to `CCOc1cc(C)c(C(=O)CCC(=O)OC)cc1C(C)C`, the IC50 was more than 500 µM.

`CCOc1cc(C(C)C)c(C(=O)CCC(=O)OC)cc1C` came in with an IC50 of more than 500 µM. As for `CCCCOC(=O)CCC(=O)c1cc(C)c(OCC)cc1C(C)C`, the figure is 176 µM; as for `CCOc1cc(C(C)C)c(C(=O)CCC(=O)OCc2ccccc2)cc1C`, more than 500 µM; as for `CCOc1cc(C)c(C(=O)CCC(=O)O)cc1C(C)C`, more than 500 µM. Under `CCOc1cc(C)c(C(=O)CCC(=O)OCc2ccccc2)cc1C(C)C` stands more than 500 µM. In turn, `C/C=C/COC(=O)CCC(=O)c1cc(C)c(OCC)cc1C(C)C` gave an IC50 of 244 µM.

`CCOC(=O)CCC(=O)c1cc(C)c(OCC)cc1C(C)C` came in with an IC50 of more than 500 µM.

In turn, `CCCCOC(=O)CCC(=O)c1cc(C(C)C)c(OCC)cc1C` yielded an IC50 of 191 µM.

In general, IC50 refers to the concentration that gives 50% inhibition.
